Assay results as given in paper PMC11597625, “Mutational Analysis of Substrate Recognition in Trypsin-like Protease Cocoonase: Protein Memory Induced by Alterations in Substrate-Binding Site” (Molecules, 2024).

Target: T1, CCN′ ([K63G,K131G,K133A]-CCN, degradation-suppressed cocoonase) (Bombyx mori, UniProt A7TVD3, K85G/K153G/K155A)
T1 construct: mature enzyme, propeptide removed (precursors carried K8D or K8D/E10D/E11D in the propeptide)
Experiment: BAEE hydrolysis assay
Type: biochemical
Details: assay conditions not described

T1 sequence (A7TVD3 entry or part of it K85G/K153G/K155A): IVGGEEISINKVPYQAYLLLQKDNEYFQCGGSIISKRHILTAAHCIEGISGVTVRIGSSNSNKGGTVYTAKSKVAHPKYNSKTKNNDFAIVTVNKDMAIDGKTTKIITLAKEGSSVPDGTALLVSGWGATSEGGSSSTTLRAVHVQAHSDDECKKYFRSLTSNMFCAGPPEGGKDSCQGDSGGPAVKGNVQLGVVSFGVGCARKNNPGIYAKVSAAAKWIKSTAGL

Km: 372 µM
SMILES: CCOC(=O)[C@H](CCCNC(=N)N)NC(=O)c1ccccc1 [BAEE]
